Drawing on PubChem BioAssay (NCI), this text covers TGI for 16 compounds.

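Assay format: 96-well plates, 48-hour exposure. TGI is the concentration that stops growth completely.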

Among the test systems are HCC-2998 colon; HCT-15 colon; HL-60(TB) leukemia; NCI-H226 lung; RXF 393 renal; U251 CNS; DLD-1 colon; DMS 114 small cell lung; DMS 273 small cell lung; KM20L2 colon; LXFL 529 NSCLC; M19-MEL melanoma; SNB-78 CNS; XF 498 CNS; HOP-18 NSCLC.
Experiment in all cases: NCI tumour cell line growth inhibition, 48 h

For the compound `O=C(NO)NCCCl`, the TGI with HCC-2998 colon, in the test with HCT-15 colon, with HL-60(TB) leukemia, in the test on NCI-H226 lung, with RXF 393 renal and in the test with U251 CNS was over 100 µM each time.
Turning to `CCCCOC(=O)C1CC[C@H]2[C@@H]3CCc4cc(OC(=O)c5cccc6c(=O)c7ccccc7[nH]c56)ccc4[C@H]3CC[C@]12C` (some centres not stated), the TGI is 15.8 µM in the test with HCC-2998 colon; 13.5 µM in the test on HCT-15 colon; 13.6 µM in the test with HL-60(TB) leukemia; 20.6 µM in the test on NCI-H226 lung; 17 µM with RXF 393 renal; 18.7 µM with U251 CNS.
Turning to `COc1cc(OC)c2c(c1)OC(c1cccnc1)C(c1ccccc1)C2=O` (configuration not stated), the TGI with HCC-2998 colon, in the test on HCT-15 colon, with HL-60(TB) leukemia, in the test on NCI-H226 lung, in the test with RXF 393 renal and in the test with U251 CNS was over 100 µM in each case.
Turning to `N/C1=C/C(=O)NC(=O)c2c(c3ccccc3oc2=O)C1`, the TGI in the test with HCC-2998 colon, in the test with HCT-15 colon, in the test with HL-60(TB) leukemia, in the test on NCI-H226 lung, with RXF 393 renal and with U251 CNS was over 100 µM in each case.
In the case of `CC(=O)OCC1OC(n2c(Br)nc3c2c(=O)n(C)c(=O)n3C)C(OC(C)=O)C1OC(C)=O` (configuration not stated), the TGI with HCC-2998 colon is over 100 µM; in the test with HCT-15 colon, over 100 µM; in the test on HL-60(TB) leukemia, 57.9 µM; in the test on NCI-H226 lung, over 100 µM; in the test with RXF 393 renal, over 100 µM; in the test with U251 CNS, over 100 µM.
As for `CCCCCCCCCCCCCCCCNc1ccn(C2CC(O)C(COC(c3ccccc3)(c3ccccc3)c3ccc(OC)cc3)O2)c(=O)n1` (configuration not stated), the TGI in the test on HCC-2998 colon, in the test with HCT-15 colon, in the test on HL-60(TB) leukemia, in the test on NCI-H226 lung, in the test on RXF 393 renal and with U251 CNS was over 100 µM each time.
`c1ccc2c(c1)cc1n2CCc2c-1[nH]c1ccccc21`: the TGI in the test on HCC-2998 colon, in the test with HCT-15 colon, in the test on HL-60(TB) leukemia, in the test on NCI-H226 lung, in the test on RXF 393 renal and in the test on U251 CNS was over 10 µM each time.
Turning to `O=C(O)c1nc2ccc(C(F)(F)F)cc2nc1Nc1ccc(F)cc1`, the TGI in the test with HCC-2998 colon was 34.3 µM; with HCT-15 colon, 70.2 µM; with HL-60(TB) leukemia, 33.3 µM; with NCI-H226 lung, 57 µM; in the test on RXF 393 renal it was 31.5 µM; in the test with U251 CNS, over 100 µM.
For `O=C1C(c2c(O)[nH]c3ccc(Br)cc23)=Nc2ccc(Br)cc21`, the TGI with HCC-2998 colon is over 100 µM; in the test with HCT-15 colon, over 100 µM; with HL-60(TB) leukemia, over 100 µM; with NCI-H226 lung, over 100 µM; with RXF 393 renal, 40.7 µM; with U251 CNS it was 35 µM.
Turning to `O=C(Cn1c(C(=O)c2ccccc2)nc2ccccc21)c1ccccc1`, the TGI in the test with HCC-2998 colon, in the test with HCT-15 colon, in the test with HL-60(TB) leukemia, with NCI-H226 lung, in the test on RXF 393 renal and in the test on U251 CNS was over 100 µM each time.
Regarding `O=c1c(Cc2ccc(Cl)cc2)nnc2sc(-c3ccc(-c4ccc(Cl)cc4Cl)o3)nn12`, the TGI in the test on HCC-2998 colon, in the test with HCT-15 colon, with HL-60(TB) leukemia, in the test with NCI-H226 lung, with RXF 393 renal and in the test with U251 CNS was over 100 µM in each case.
For `CCn1c2ccccc2c2c(-c3ccccc3)cc3c(c21)C(=O)N(c1ccccc1)C3=O`, the TGI in the test with DLD-1 colon, with DMS 114 small cell lung, with DMS 273 small cell lung, with HCC-2998 colon, in the test with HCT-15 colon and in the test with HL-60(TB) leukemia was over 100 µM each time. In addition, the TGI in the test with KM20L2 colon, in the test on LXFL 529 NSCLC, in the test with M19-MEL melanoma, with NCI-H226 lung, with SNB-78 CNS and in the test on U251 CNS was over 100 µM throughout. This compound also had a TGI with XF 498 CNS of over 100 µM.
Take `CCN1CCC(CNC(=O)c2ccc(N)cc2)N1CC` (configuration not stated): the TGI in the test on HCC-2998 colon, in the test with HCT-15 colon, in the test on HL-60(TB) leukemia, in the test on NCI-H226 lung, in the test with RXF 393 renal and with U251 CNS was over 100 µM in each case.
In the case of `Cc1nc2cc(Nc3ccccc3C(=O)O)ccc2s1`, the TGI with DLD-1 colon, with DMS 114 small cell lung, in the test on DMS 273 small cell lung, in the test on HCC-2998 colon, in the test with HCT-15 colon and with HL-60(TB) leukemia was over 100 µM throughout. Moreover, the TGI with HOP-18 NSCLC, with KM20L2 colon, in the test with LXFL 529 NSCLC, with M19-MEL melanoma, with RXF 393 renal and in the test on U251 CNS was over 100 µM in each case.
With `NC(=O)CC(N=Cc1nc(-c2ccccc2)oc1O)C(=O)O` (configuration not stated), the TGI with DLD-1 colon, in the test with DMS 114 small cell lung, in the test on DMS 273 small cell lung, with HCC-2998 colon, with HCT-15 colon and in the test on HL-60(TB) leukemia was over 100 µM in each case. Moreover, the TGI in the test with HOP-18 NSCLC, in the test with KM20L2 colon, in the test on LXFL 529 NSCLC, in the test with M19-MEL melanoma, in the test on NCI-H226 lung and with RXF 393 renal was over 100 µM in each case. Moreover, the TGI with SNB-78 CNS and in the test on U251 CNS was over 100 µM in each case.
`O=C(SCc1cccc2ccccc12)c1ccc(Cl)cc1`: the TGI in the test on HCC-2998 colon, in the test with HCT-15 colon, in the test on HL-60(TB) leukemia, in the test with NCI-H226 lung, with RXF 393 renal and in the test on U251 CNS was over 100 µM in each case.
